We go through 8 compounds from patent publication US20260225997A1, “IONIZABLE AMINE LIPIDS” (Intellia Therapeutics, Inc., priority 2018, published 2026).

Where two headings read alike, the source gives them in different places.

The test system of data set [1] is TTR. Description: Transthyretin (TTR) ELISA analysis of mouse serum after LNP dosing. The settings on record: for response vs control in vivo at 0.1 mg/kg / response vs control in vivo at 0.03 mg/kg / inhibition in vivo at 0.03 mg/kg: Mus musculus, iv; for response vs control in vivo at 0.1 mg/kg / response vs control in vivo at 0.03 mg/kg: read-out: Serum TTR % TSS; for inhibition in vivo at 0.03 mg/kg: read-out: Serum TTR (% KD). The format is in vivo. The procedure:
(§1) CD-1 female mice, ranging from 6-10 weeks of age were used in each study. Animals were weighed and grouped according to body weight for preparing dosing solutions based on group average weight. LNPs were dosed via the lateral tail vein in a volume of 0.2 mL per animal (approximately 10 mL per kilogram body weight). The animals were periodically observed post dose for adverse effects for at least 24 hours post dose. Animals were euthanized at 6 or 7 days by exsanguination via cardiac puncture under isoflurane anesthesia. Blood was collected into serum separator tubes or into tubes containing buffered sodium citrate for plasma as described herein. For studies involving in vivo editing, liver tissue was collected from each animal for DNA extraction and analysis.
CD-1 female mice were dosed i.v. at 0.1 mpk or 0.3 mpk. […] For animals dosed with G282 targeting TTR, blood and the liver were collected and serum TTR and editing were measured. For animals dosed with G650 targeting B2M, liver was collected and editing was measured.
Blood was collected and the serum was isolated as indicated. The total mouse TTR serum levels were determined using a Mouse Prealbumin (Transthyretin) ELISA Kit (Aviva Systems Biology, Cat. OKIA00111). Briefly, sera were serial diluted with kit sample diluent to a final dilution of 10,000-fold for 0.1 mpk dose and 2,500-fold for 0.3 mpk. This diluted sample was then added to the ELISA plates and the assay was then carried out according to directions.

Data set [2] is described as follows: pKa measurement of unformulated amine lipid (fluorescence, method of Jayaraman et al.). The data set is classed as physicochemical. Conditions: 100 μM in 0.1 M phosphate buffer pH 4.5-9.0. The procedure: The pKa of each amine lipid was determined according to the method in Jayaraman, et al. (Angewandte Chemie, 2012) with the following adaptations. […] Lipid was diluted to 100 μM in 0.1 M phosphate buffer (Boston Bioproducts) where the pH ranged from 4.5-9.0. Fluorescence intensity was measured using excitation and emission wavelengths of 321 nm and 448 nm.

The test system of data set [3] is TTR. Description: TTR editing in mouse liver by NGS after i.v. LNP delivery of Cas9 mRNA and sgRNA. The format is in vivo. Conditions: CD-1 female mice. The procedure: Preparations of various LNP compositions were prepared with amine lipids. In assays for percent liver editing in mice, Cas9 mRNA and chemically modified sgRNA were formulated in LNPs, at either a 1:1 w/w ratio or a 1:2 w/w ratio. LNPs are formulated with a composition of a given ionizable lipid (e.g. an amine lipid), DSPC, cholesterol, and PEG-2k-DMG, with a 6.0 N:P ratio.
as §1
Cohorts of mice were measured for liver editing by Next-Generation Sequencing (NGS).
In brief, to quantitatively determine the efficiency of editing at the target location in the genome, genomic DNA was isolated and deep sequencing was utilized to identify the presence of insertions and deletions introduced by gene editing.
PCR primers were designed around the target site (e.g., B2M), and the genomic area of interest was amplified. Additional PCR was performed according to the manufacturer's protocols (Illumina) to add the necessary chemistry for sequencing. The amplicons were sequenced on an Illumina MiSeq instrument. The reads were aligned to the […] after eliminating those having low quality scores. The resulting files containing the reads were mapped to the reference genome (BAM files), where reads that overlapped the target region of interest were selected and the number of wild type reads versus the number of reads which contain an insertion, substitution, or deletion was calculated.
The editing percentage (e.g., the “editing efficiency” or “percent editing”) is defined as the total number of sequence reads with insertions or deletions over the total number of sequence reads, including wild type.
CD-1 female mice were dosed i.v. at 0.1 mpk or 0.3 mpk. At 6 days post-dose, animals were sacrificed. For animals dosed with G282 targeting TTR, blood and the liver were collected and serum TTR and editing were measured. For animals dosed with G650 targeting B2M, liver was collected and editing was measured.

The mark [4] stands for this setting: Example 58: 0.1 mpk i.v., 6 days post-dose, G282 1:1.
The mark [5] stands for this setting: 144 h, Example 58: 0.1 mpk i.v., 6 days post-dose, G282 1:1.
Where [6] appears, read: Example 62: 0.03 mpk i.v., 7 days post-dose, G282 1:2.
Where [7] appears, read: Example 62: 0.1 mpk i.v., 7 days post-dose, G282 1:2.
Where [8] appears, read: Example 60: 0.1 mpk i.v., 6 days post-dose, G502 1:2.
[9] abbreviates: Example 63: 0.03 mpk i.v., 7 days post-dose, G282 1:1.
Setting [10] is: Example 63: 0.1 mpk i.v., 7 days post-dose, G282 1:1.
[11] abbreviates: 168 h, Example 63: 0.03 mpk i.v., 7 days post-dose, G282 1:1.
The mark [12] stands for this setting: 168 h, Example 63: 0.1 mpk i.v., 7 days post-dose, G282 1:1.
Where [13] appears, read: Example 64: Dose 0.03 mpk (table) i.v., 7 days post-dose, G282 1:1.
Where [14] appears, read: 168 h, Example 64: Dose 0.03 mpk (table) i.v., 7 days post-dose, G282 1:1.

On to `CCCCCCCCCCCCOC(=O)CCCCN(CCO)CCCCCCCC(OCCCCCCCC)OCCCCCCCC` [Compound 14, dodecyl 5-((8,8-bis(octyloxy)octyl)(2-hydroxyethyl)amino)pentanoate], for which the “Serum TTR” value in the data set on TTR [1] (setting [4]) stood at 928 µg/mL. The response vs control in vivo at 0.1 mg/kg in the data set with TTR [1] (setting [5]) turned out to be 94%. This compound returned a pKa in data set [2] of 6.46. Besides, the “Editing Mean % Indel” value in the data set with TTR [3] (setting [4]) came out at 12.1%.

In the case of `CCCCCCCCOC(CCCCCCCN(CCO)CCCCCCCC(=O)OCCCCCCC)OCCCCCCCC` [Compound 15, heptyl 8-((8,8-bis(octyloxy)octyl)(2-hydroxyethyl)amino)octanoate], the “Serum TTR” value in the data set on TTR [1] (setting [4]) worked out at 179 µg/mL; with TTR [1] (setting [6]), 548 µg/mL; in the data set on TTR [1] (setting [7]) it was 180 µg/mL. In addition, the response vs control in vivo at 0.1 mg/kg in the data set on TTR [1] (setting [5]) is 18%; in the data set on TTR [1] (168 h, Example 62: 0.1 mpk i.v., 7 days post-dose, G282 1:2) it was 28%. Besides, the response vs control in vivo at 0.03 mg/kg in the data set with TTR [1] (168 h, Example 62: 0.03 mpk i.v., 7 days post-dose, G282 1:2) was 86%. In data set [2], this compound gave a pKa of 6.34. In addition, the “Editing Mean % Indel” value stood at 50.3% in the data set with TTR [3] (setting [4]), 16.4% in the data set on TTR [3] (setting [6]) and 57.4% in the data set on TTR [3] (setting [7]).

Regarding `CCCCCCCCCOC(=O)CCCCCCCN(CCO)CCCCCCCC(OC(C)CCCCCC)OC(C)CCCCCC` (centres unmarked) [Compound 25, nonyl 8-[8,8-bis(1-methylheptoxy)octyl-(2-hydroxyethyl)amino]octanoate], the “Serum TTR” value in the data set on TTR [1] (setting [8]) was 985 µg/mL. Also, the response vs control in vivo at 0.1 mg/kg with TTR [1] (144 h, Example 60: 0.1 mpk i.v., 6 days post-dose, G502 1:2) was 69%. For the same compound, the pKa in data set [2] stood at 6.1. Besides, the “Editing Mean % Indel” value with TTR [3] (setting [8]) was 15.3%.

Consider `CCCCCCCCOC(CCCCCCCN(CCO)CCCCCCCC(=O)OC(C)CCCCCC)OCCCCCCCC` (centres unmarked) [Compound 27, octan-2-yl 8-((8,8-bis(octyloxy)octyl)(2-hydroxyethyl)amino)octanoate], for which the “Serum TTR” value in the data set with TTR [1] (setting [9]) turned out to be 497.99 µg/mL; in the data set with TTR [1] (setting [10]) it was 197.22 µg/mL. Besides, the response vs control in vivo at 0.03 mg/kg with TTR [1] (setting [11]) came to 61.7%. Also, the response vs control in vivo at 0.1 mg/kg with TTR [1] (setting [12]) came out at 24.4%. The pKa in data set [2] came to 6.41. Also, the “Editing Mean % Indel” value in the data set on TTR [3] (setting [9]) turned out to be 27.86%; with TTR [3] (setting [10]) it was 57.10%.

Consider `CCCCCCCCOC(CCCCCCCN(CCO)CCCCCCCC(=O)OCCCCC)OCCCCCCCC` [Compound 29, pentyl 8-((8,8-bis(octyloxy)octyl)(2-hydroxyethyl)amino)octanoate], for which the “Serum TTR” value in the data set with TTR [1] (setting [9]) worked out at 718.48 µg/mL; in the data set on TTR [1] (setting [10]), 660.46 µg/mL. Moreover, the response vs control in vivo at 0.03 mg/kg in the data set with TTR [1] (setting [11]) was found to be 89%. Further, in the data set with TTR [1] (setting [12]), the response vs control in vivo at 0.1 mg/kg stood at 81.8%. This compound came in with a pKa in data set [2] of 6.54. Moreover, the “Editing Mean % Indel” value came to 5.76% in the data set on TTR [3] (setting [9]) and 15.96% with TTR [3] (setting [10]).

As for `CCCCCCCCOC(CCCCCCCN(CCO)CCCCCCCC(=O)OC(CC)CCCC)OCCCCCCCC` (centres unmarked) [Compound 30, heptan-3-yl 8-((8,8-bis(octyloxy)octyl)(2-hydroxyethyl)amino)octanoate], the figures for the “Serum TTR” value in the data set on TTR [1] (setting [9]) and in the data set on TTR [1] (setting [10]) were 514.23 µg/mL and 125.89 µg/mL, respectively. Further, the response vs control in vivo at 0.03 mg/kg in the data set on TTR [1] (setting [11]) is 63.7%. Moreover, the response vs control in vivo at 0.1 mg/kg with TTR [1] (setting [12]) worked out at 15.6%. This compound showed a pKa in data set [2] of 6.48. The “Editing Mean % Indel” value with TTR [3] (setting [9]) was 27.64%; in the data set on TTR [3] (setting [10]), 62.48%.

For `CCCCCCCCCOC(=O)CCCCCCCN(CCCCCCC(OCCCCCCCC)OCCCCCCCC)CCNC(C)=O` [Compound 41, nonyl 8-((2-acetamidoethyl)(7,7-bis(octyloxy)heptyl)amino)octanoate], the “Serum TTR” value in the data set with TTR [1] (setting [13]) amounted to 567.1 µg/mL. Besides, the inhibition in vivo at 0.03 mg/kg with TTR [1] (setting [14]) was 1%. In addition, the pKa in data set [2] turned out to be 6.82. Further, the “Editing Mean % Indel” value with TTR [3] (setting [13]) is on record as 2.4%.

As for `CCCCCCCCCOC(=O)CCCCCCCN(CCCCCCC(OCCCCCCCC)OCCCCCCCC)CCCNC(C)=O` [Compound 42, nonyl 8-((3-acetamidopropyl)(7,7-bis(octyloxy)heptyl)amino)octanoate], in the data set on TTR [1] (setting [13]), the “Serum TTR” value came out at 571.6 µg/mL. Also, the inhibition in vivo at 0.03 mg/kg in the data set on TTR [1] (setting [14]) came to 0.2%. The same compound had a pKa in data set [2] of 7.19. Moreover, the “Editing Mean % Indel” value in the data set on TTR [3] (setting [13]) is 9.6%.
